The supplement of paper PMC10307832

Experiments:
Experiment in all cases: relative viability (nuclei count vs DMSO), 5 days (fraction); higher = more cells survive
[1] = compound: C=CCn1c(=O)c2cnc(Nc3ccc(N4CCN(C)CC4)cc3)nc2n1-c1cccc(C(C)(C)O)n1 [Adavosertib] + CCNC(=O)c1noc(-c2cc(C(C)C)c(O)cc2O)c1-c1ccc(CN2CCOCC2)cc1 [Luminespib] (partner 0.01 µM)
Procedure, shortened: (§1)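 Cells from lung cancer lines were seeded into 1536-well plates and, one day later, dosed by pin tool. Treatments were either a single drug or a fixed dose of an anchor drug with five library-drug doses (not always all listed) in √10 steps. After 5 days, nuclei were stained in a one-step fixation (final 0.05% Triton X-100, 1% formaldehyde, 1 ug/ml Hoechst) and counted on 4× images, and relative viability is the treated-to-vehicle nuclei ratio, as the median of duplicate plates.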

[2] = compound: COc1nc(N)nc2c1ncn2[C@@H]1O[C@H](CO)[C@@H](O)[C@@H]1O [Nelarabine] + CC(=O)c1c(C)c2cnc(Nc3ccc(N4CCNCC4)cn3)nc2n(C2CCCC2)c1=O [Palbociclib] (partner 0.5 µM)
Procedure, shortened: as §1

[3] = compound: C=CCn1c(=O)c2cnc(Nc3ccc(N4CCN(C)CC4)cc3)nc2n1-c1cccc(C(C)(C)O)n1 [Adavosertib] + NC(=O)Nc1cc(-c2cccc(F)c2)sc1C(=O)N[C@H]1CCCNC1 [AZD7762] (partner 0.2 µM)
Procedure, shortened: as §1

[4] = compound: C=CCn1c(=O)c2cnc(Nc3ccc(N4CCN(C)CC4)cc3)nc2n1-c1cccc(C(C)(C)O)n1 [Adavosertib] + CC(=O)c1c(C)c2cnc(Nc3ccc(N4CCNCC4)cn3)nc2n(C2CCCC2)c1=O [Palbociclib] (partner 0.5 µM)
Procedure, shortened: as §1

| Cell Line | relative viability ([1]; first compound 0.01 µM) | relative viability ([1]; first compound 0.03162 µM) | relative viability ([1]; first compound 0.1 µM) | relative viability ([1]; first compound 0.3162 µM) | relative viability ([2]; first compound 0.01 µM) | relative viability ([2]; first compound 0.03162 µM) | relative viability ([2]; first compound 0.1 µM) | relative viability ([2]; first compound 0.3162 µM) | relative viability ([2]; first compound 1 µM) | relative viability ([3]; first compound 0.01 µM) | relative viability ([3]; first compound 0.03162 µM) | relative viability ([3]; first compound 0.1 µM) | relative viability ([3]; first compound 0.3162 µM) | relative viability ([4]; first compound 0.01 µM) | relative viability ([4]; first compound 0.03162 µM) | relative viability ([4]; first compound 0.1 µM) | relative viability ([4]; first compound 0.3162 µM) |
| --- | --- | --- | --- | --- | --- | --- | --- | --- | --- | --- | --- | --- | --- | --- | --- | --- | --- |
| LCLC-103H | 0.865 | 1.05 | 0.892 | 0.837 | 0.523 | 0.421 | 0.466 | 0.486 | 0.504 | 0.786 | 0.783 | 0.775 | 0.408 | 0.498 | 0.478 | 0.469 | 0.464 |
| NCI-H1666 | 0.977 | 0.946 | 0.994 | 1.02 | 0.607 | 0.648 | 0.677 | 0.661 | 0.59 | 0.766 | 0.829 | 0.803 | 0.625 | 0.613 | 0.64 | 0.662 | 0.699 |
| LC-2-ad | 1.01 | 1.11 | 1.26 | 1.08 | 0.525 | 0.495 | 0.475 | 0.544 | 0.522 | 0.792 | 0.846 | 0.817 | 0.62 | 0.535 | 0.467 | 0.55 | 0.519 |
| PC-3 [JPC-3] | 0.665 | 0.746 | 0.657 | 0.724 | 0.562 | 0.544 | 0.524 | 0.526 | 0.533 | – | 0.757 | 0.777 | 0.709 | – | 0.502 | 0.28 | 0.544 |
| A-427 | 0.877 | 1 | 1.05 | 0.634 | 0.528 | 0.533 | 0.56 | 0.533 | 0.53 | 0.692 | 0.4 | 0.327 | 0.231 | 0.517 | 0.567 | 0.538 | 0.52 |
| NCI-H1651 | 0.812 | 1.06 | 0.733 | 0.678 | 0.566 | 0.596 | 0.553 | 0.512 | 0.522 | 0.415 | 0.299 | 0.264 | 0.132 | 0.499 | 0.523 | 0.572 | 0.612 |
| BEN | 0.195 | 0.501 | 0.413 | 0.389 | 0.532 | 0.452 | 0.497 | 0.491 | 0.494 | 0.571 | 0.622 | 0.632 | 0.451 | 0.452 | 0.434 | 0.473 | 0.501 |
| NCI-H1915 | 0.912 | 0.729 | 0.752 | 0.617 | 0.598 | 0.531 | 0.533 | 0.522 | 0.525 | 0.724 | 0.657 | 0.566 | 0.238 | 0.535 | 0.564 | 0.645 | 0.644 |
| NCI-H1975 | 0.16 | 0.17 | 0.188 | 0.176 | 0.656 | 0.526 | 0.747 | 0.726 | 0.649 | 0.713 | 0.677 | 0.663 | 0.641 | 0.551 | 0.559 | 0.488 | 0.608 |
| RERF-LC-KJ | 1.32 | 1.33 | 1.29 | 1.16 | 1.13 | 1.17 | 1.09 | 1.17 | 0.97 | 0.987 | 1.02 | 1.02 | 0.878 | 0.977 | 1.07 | 1.14 | 1.03 |
| HCC-15 | 0.309 | 0.325 | 0.334 | 0.359 | 0.847 | 0.695 | 0.788 | 0.837 | 0.677 | 1.1 | 1.28 | 1.57 | 1.14 | 0.744 | 0.706 | 0.739 | 0.899 |
| EKVX | 0.875 | 0.853 | 0.84 | 0.967 | 0.373 | 0.356 | 0.549 | 0.348 | 0.361 | 0.595 | 0.731 | 0.635 | 0.799 | 0.365 | 0.354 | 0.344 | 0.5 |
| NCI-H2347 | 0.467 | 0.382 | 0.723 | 0.292 | 0.407 | 0.37 | 0.42 | 0.402 | 0.481 | 0.791 | 0.674 | 0.476 | 0.329 | 0.41 | 0.419 | 0.444 | 0.44 |
| NCI-H1944 | 0.696 | 0.715 | 0.655 | 0.575 | 0.367 | 0.267 | 0.343 | 0.362 | 0.316 | 0.511 | 0.31 | 0.23 | 0.164 | 0.298 | 0.317 | 0.317 | 0.319 |
| NCI-H1395 | 0.836 | 0.741 | 0.734 | 0.424 | 0.543 | 0.559 | 0.69 | 0.566 | 0.622 | 0.377 | 0.354 | 0.345 | 0.316 | 0.616 | 0.657 | 0.591 | 0.674 |
| ChaGo-K-1 | 0.502 | 0.683 | 0.489 | 0.719 | 0.939 | 0.815 | 0.964 | 0.989 | 0.876 | 0.918 | 0.836 | 0.732 | 0.29 | 0.884 | 0.949 | 1.01 | 0.885 |
| NCI-H1792 | 0.595 | 0.446 | 0.456 | 0.569 | – | 0.58 | 0.904 | 0.78 | 0.922 | 0.683 | 0.652 | 0.452 | 0.135 | – | 0.661 | 0.779 | 0.829 |
| NCI-H3122 | 0.0987 | 0.0823 | 0.12 | 0.0969 | 0.194 | 0.145 | – | 0.201 | 0.207 | 0.998 | 0.829 | 0.963 | 0.511 | 0.216 | 0.198 | 0.184 | 0.213 |
| LXF-289 | 0.598 | 0.651 | 0.654 | 0.783 | 0.708 | 0.548 | 0.62 | 0.625 | 0.59 | 1.08 | 0.984 | 0.683 | 0.231 | 0.576 | 0.619 | 0.656 | 0.735 |
